Measured values as given in patent publication US20040022866A1, “Pharmaceutical compositions with antibiotic activity” (ZAMBON GROUP S.P.A., priority 2002, published 2004).

Assay: DSC measurement of the heat of the degradation reaction of FT
Type: physicochemical
Details: scanning 10° C./min., mechanic mixture FT 0.02 moles + stabilizer 0.01 moles, 0.05% of water with respect to FT, reduced heat = higher stabilization
Description: The stabilization of FT from the selected stabilizers was evaluated experimentally with the DSC technology.
A mechanic mixture of FT (0.02 moles) with each of the stabilizers (0.01 moles) was admixed with 0.05% of water with respect to FT.
The DCS technology used for each mixture (scanning 10° C./min.) allow to measure the reaction heat which develops after the melting peak of FT, due to the degradation reaction.
A reduced heat development indicates a higher stabilization, the amount of FT being the same.

C[C@@H]1O[C@@H]1P(=O)(O)O.NC(CO)(CO)CO [FT (single substance), Fosfomycin Tromethamol]
reaction heat which develops after the melting peak of FT, due to the degradation reaction: 271.03 ± 16.73 (J/g)
